Patent US20180264121A1, “CANNABINOID-CONTAINING ORAL PHARMACEUTICAL COMPOSITION, METHOD FOR PREPARING AND USING SAME” (PRATI-DONADUZZI & CIA LTDA., priority 2015, published 2018)

Experiment: Solubility of the API (quality-control specification)
Format: physicochemical
Source text: Validated Analytical Methodology and Acceptable Limits to Ensure Identity, Quality and Purity of the API.

C=C(C)[C@@H]1CCC(C)=C[C@H]1c1c(O)cc(CCCCC)cc1O [API, cannabidiol]
SOLUBILITY (in chloroform): SOLUBLE | SOLUBILITY (in ethanol 96%): SOLUBLE | SOLUBILITY (in hexane): SLIGHTLY SOLUABLE IN HEXANE | SOLUBILITY (in purified water): INSOLUBLE
